# Reference: PubChem BioAssay (NCI)
#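 Grown in 96-well plates, cells were treated for 48 hours with each compound at five concentrations. Insufficient inhibition: endpoint recorded as highest concentration tested. GI50 = concentration required for 50% inhibition of growth. The concentration for full growth arrest is given as TGI.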
# Experiments:
# Assay in all cases: NCI tumour cell line growth inhibition, 48 h
# MCF7 breast = test system: MCF7 breast
# HCT-116 colon = test system: HCT-116 colon
# RXF 393 renal = test system: RXF 393 renal
# A549 NSCLC = test system: A549 NSCLC
# OVCAR-5 ovarian = test system: OVCAR-5 ovarian
# COLO 205 colon = test system: COLO 205 colon
# HCC-2998 colon = test system: HCC-2998 colon
# NCI-H226 lung = test system: NCI-H226 lung
# SK-MEL-2 melanoma = test system: SK-MEL-2 melanoma
# SF-268 CNS = test system: SF-268 CNS
SMILES,GI50 (MCF7 breast) [µM],TGI (MCF7 breast) [µM],GI50 (HCT-116 colon) [µM],TGI (HCT-116 colon) [µM],GI50 (RXF 393 renal) [µM],TGI (RXF 393 renal) [µM],GI50 (A549 NSCLC) [µM],TGI (A549 NSCLC) [µM],GI50 (OVCAR-5 ovarian) [µM],TGI (OVCAR-5 ovarian) [µM],GI50 (COLO 205 colon) [µM],TGI (COLO 205 colon) [µM],GI50 (HCC-2998 colon) [µM],TGI (HCC-2998 colon) [µM],GI50 (NCI-H226 lung) [µM],TGI (NCI-H226 lung) [µM],GI50 (SK-MEL-2 melanoma) [µM],TGI (SK-MEL-2 melanoma) [µM],GI50 (SF-268 CNS) [µM],TGI (SF-268 CNS) [µM]
COc1ccc(C[n+]2c3ccccc3n3c4ccc(N)cc4ccc32)c(OC)c1OC,1.11,26.1,12.6,83.7,6.3,21.9,19.3,> 100,12.1,78.5,1.9,5.65,4,24.7,12.8,60.8,3.78,14.8,2.42,15.5
CCOC(=O)C1=C(C)NC2SC(=O)/C(=C\c3ccccc3Cl)N2C1c1ccccc1 (stereo not given),> 100,> 100,> 100,> 100,> 100,> 100,> 100,> 100,> 100,> 100,> 100,> 100,> 100,> 100,> 100,> 100,> 100,> 100,> 100,> 100
CC(N=C(N)N)C(=O)O (stereo not given),–,> 100,–,> 100,–,> 100,–,> 100,–,> 100,–,> 100,–,> 100,–,> 100,–,> 100,–,> 100
COc1cccc(C(=O)Nc2ccc(CN3CCc4nc5cc(OC)c(OC)cc5cc43)cc2)c1,3.19,20.5,3.12,12.1,2.74,15.3,3.78,> 100,12.9,> 100,2.69,7.03,4.81,18.5,5.69,> 100,8.8,22.4,6.51,> 100
CN1CCN(CCCOc2cccc3nc(Nc4ccc(Cl)c(F)c4)ccc23)CC1,1.31,2.77,1.56,3.03,1.96,4.04,1.96,3.65,1.55,3.26,1.7,3.34,1.52,3.07,2.05,4.14,1.88,3.7,1.72,3.46
N=Nc1c(OC(=O)Nc2ccccc2)[nH]c2ccccc12,–,38.8,–,31.6,–,28.7,–,44.4,–,> 100,–,42.9,–,29.7,–,37.9,–,44.6,–,> 100
CC(C)(C)[Si](C)(C)OCC1CCC(n2cnc3c(=O)[nH]cnc32)O1 (stereo not given),–,> 100,–,> 100,–,> 100,–,> 100,–,> 100,–,> 100,–,> 100,–,> 100,–,> 100,–,> 100
N#CC(C#N)=Cc1c(-c2ccccc2)[nH]c2ccccc12,1.07,> 47.2,2.21,> 100,3.33,> 33.3,4.62,> 100,19.6,> 100,1.76,15,10.4,35.9,3.84,> 41.4,19.1,> 70.6,8.81,> 46.2
NC(=O)c1cc(-c2ccncc2)cc(-c2ccccc2)c1N,> 25,> 25,> 24,> 25,5.41,24.9,> 23.2,> 25,> 25,> 25,22.1,> 25,> 25,> 25,12.7,> 25,> 5.2,> 17,> 25,> 25
